In patent publication US7572831B2, “Composition containing chalcone” (Angiolab, Inc., priority 2002, dated 2009):

Experiments:
MMP-13 = target: T1, MMP-13 (Homo sapiens, UniProt P45452); experiment: MMP-13 spectrofluorometric enzyme activity assay; format: biochemical; details: 50 μM compound
T1 construct: made in house; host or cells: Sf21 insect cells, baculovirus (pBlueBac4.5)
Procedure: (§1) MMP-1, MMP-2, MMP-9 and MMP-13 were cloned and prepared from insect cells (Sf21 insect cell) by using a Baculovirus system.
(§2) Each cDNA for corresponding MMPs was cloned to a pBlueBac4.5 transfer vector (Invitrogen, Cat no. V1995-20), and then transfected to Sf21 cells with a Bac-N-Blue Transfection Kit (Invitrogen, Cat no. K855-01). Sf21 cells were incubated with a TNM-FH (Sigma, St. Louis, Mo., U.S.A) media containing 10% fetal bovine serum at 27° C., then harvested and re-suspended at a concentration of 10^7 cell/Ml. The cell suspension was incubated with a virus containing the cloned gene for 1 hr at room temperature. Infected Sf21 cells were grown for 72 hrs and the medium was recovered, and the MMP was purified. MMP-2 (GENEBANK No. XM—048244) and MMP-9 (GENEBANK No. XM—009491) were recovered from a gelatin-sepharose affinity column (Sigma, G5384) by eluting with 5% DMSO-containing buffer. MMP-1 (GENEBANK NO. XM—040735) and MMP-13 (GENEBANK NO. NM_002427) were purified with SP-sepharose column (Pharmacia, 17-02729-01) chromatography.
(§3) In order to investigate MMP inhibition by chalcone or its derivatives, MMP enzyme activity was assayed by a spectrofluorometric method using Perkin-Elmer LS50B.
(§4) Purified MMP-1, MMP-2, MMP-9 and MMP-13 were used after activation with 1 mM APMA before assay.
(§5) The substrate for MMP-1 was 2,4-dinitrophenyl-Pro-Leu-Ala-Leu-Trp-Ala-Arg-OH (Calbiochem). 2,4-dinitrophenyl-Pro-Leu-Met-Trp-Ser-Arg-OH (Calbiochem) was used for MMP-2 and MMP-9 activity assay. As a substrate for MMP-13, MCA-Pro-Cha-Gly-Nva-His-Ala-Dpa-NH2 (Calbiochem) was used [MCA=methyl coumarylamide; Cha=L-cyclohexylalanine; Nva=L-norvaline; Dpa=3-(2,4-dinitrophenyl)-L-2,3-diaminoproprionic acid].
(§6) As a control, 2 Ml of reaction buffer (50 mM Tricine, pH 7.5, 10 mM CaCl2, 200 mM NaCl) comprising DMSO, 10 nM of enzyme and 10 μM of substrate was prepared in a cuvette. Fluorescence intensity was measured for 5-10 min at room temperature with a spectrofluorometer.
(§7) 50 μM Chalcone or its derivatives were added to a reaction buffer containing a substrate and enzyme, and fluorescence intensity was measured in the same manner.

MMP-2 = target: T2, MMP-2 (Homo sapiens, UniProt P08253); experiment: MMP-2 spectrofluorometric enzyme activity assay; format: biochemical; details: 50 μM compound
T2 construct: made in house; host or cells: Sf21 insect cells, baculovirus (pBlueBac4.5)
T2 sequence (P08253 110-660): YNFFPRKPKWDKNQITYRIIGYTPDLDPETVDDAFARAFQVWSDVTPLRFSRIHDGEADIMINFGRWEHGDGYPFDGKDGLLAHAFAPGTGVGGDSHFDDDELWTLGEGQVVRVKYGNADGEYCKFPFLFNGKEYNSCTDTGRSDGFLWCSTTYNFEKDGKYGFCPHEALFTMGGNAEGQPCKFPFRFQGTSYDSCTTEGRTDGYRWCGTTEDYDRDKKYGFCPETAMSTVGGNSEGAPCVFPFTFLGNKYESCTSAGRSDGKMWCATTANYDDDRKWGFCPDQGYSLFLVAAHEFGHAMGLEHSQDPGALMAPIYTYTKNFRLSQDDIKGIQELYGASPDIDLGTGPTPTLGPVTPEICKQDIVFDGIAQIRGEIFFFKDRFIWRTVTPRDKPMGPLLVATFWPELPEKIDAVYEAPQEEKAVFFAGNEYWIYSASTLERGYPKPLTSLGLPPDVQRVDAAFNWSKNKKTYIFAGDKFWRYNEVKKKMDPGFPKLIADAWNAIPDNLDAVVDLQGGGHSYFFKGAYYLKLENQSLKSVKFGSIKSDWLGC
Procedure: as §1, §2, §3, §4, §5, §6, §7

TPA-induced ear edema = TPA-induced ear edema model; format: in vivo, ICR mouse; details: topical 5% in acetone (indomethacin 0.5 mg/ear), 4 hours after TPA; for Δ Ear thickness (um ± S.D): TPA control 176 ± 35
Procedure: To observe the anti-inflammatory effects of chalcone or its derivatives edema was induced in the ear by topical application of 10 ul of TPA (Tetradecanoylphorbol acetate) in acetone (2.5 ug/ear) to both the inner and outer surface of one ear of each 6-week-old ICR mouse. 5% of Chalcone or its derivatives diluted with acetone were applied separately to each ear topically immediately after TPA. The reference drug, indomethacin (0.5 mg/ear), was administered as a positive control. Ear thickness was measured before and 4 hours after treatment with the irritant using a micrometer (Mitutoyo Co.). Ear thickness was expressed as the mean of the difference between thickness before and after challenge. Inhibition ratio percentage of edema was expressed as the reduction in thickness with respect to the control treated only with TPA. As shown in FIG. 6 and Table 2, chalcone or its derivatives suppressed the TPA-induced ear edema.

[1] = test system: human umbilical vein endothelial cells (HUVECs); experiment: Tube formation of HUVEC on Matrigel; format: cell-based; details: 50 μM, 8-16 hrs
Source text: The effect of chalcone or its derivatives on human endothelial cells was investigated to evaluate the biological effect of chalcones as MMP inhibitors. Since MMPs are responsible for the degradation of extracellular matrix, chalcone or its derivatives can inhibit the formation of tubular network of vessel, which represent migration and differentiation of endothelial cell. Blood vessel endothelial cells, human umbilical vein endothelial cells (HUVECs), were isolated from freshly obtained cords after cesarean section according to Grants' method (Grants D. S., et al., Cell, 58, pp933-943, 1989). They were identified by immunocytochemical staining with anti-Factor VIII antibody. HUVECs cultured on Matrigel (BD Bioscience, Bedford, Mass., USA) were treated with 50 μM of chalcone or its derivatives, and further incubated at 37° C. for 8-16 hrs. As a control, the procedure was repeated with the solvent of the above compounds.

Compound	MMP-13 inhibition (% inhibition) (MMP-13)	MMP-2 inhibition (% inhibition) (MMP-2)	Inhibition ratio (%) of ear edema (TPA-induced ear edema)	Δ Ear thickness (um ± S.D) (TPA-induced ear edema)	Tubular (microvascular) network formation of HUVEC [1]
O=C(C=Cc1ccccc1O)c1ccccc1 [2-hydroxy chalcone, 2-hydroxychalcone (1-phenyl-3-(2-hydroxyphenyl)prophenone)]	89.9 % inhibition	90.4 % inhibition	58.0%	74 ± 20 um	–
COc1ccc(C(=O)C=Cc2ccccc2)c(OC)c1 [2′,4′-dimethoxy chalcone, 2′,4′-dimethoxychalcone (1-(2,4-dimethoxyphenyl)-3-phenylprophenone)]	83.4 % inhibition	92.5 % inhibition	–	–	–
O=C(C=Cc1ccc(O)cc1)c1ccccc1 [4-hydroxy chalcone, 4-hydroxychalcone (1-phenyl-3-(4-hydroxyphenyl)prophenone)]	94.5 % inhibition	95.9 % inhibition	–	–	–
COc1ccc(C=CC(=O)c2ccccc2)cc1 [4-methoxy chalcone, 4-methoxychalcone (1-phenyl-3-(4-methoxyphenyl)prophenone)]	83.9 % inhibition	92.7 % inhibition	56.2%	77 ± 19 um	–
COc1ccc(C(=O)C=Cc2ccccc2)cc1 [4′-methoxy chalcone, 4′-methoxychalcone (1-(4-methoxyphenyl)-3-phenylprophenone)]	86.8 % inhibition	99.1 % inhibition	40.9%	104 ± 21 um	microvascular network was disconnected
COc1ccc2c(c1)c(CC(=O)O)c(C)n2C(=O)c1ccc(Cl)cc1 [Indomethacin, reference compound]	–	–	72.7%	48 ± 25 um	–
O=C(CCc1ccc(O)cc1)c1c(O)cc(O)cc1O [Phloretin]	77.0 % inhibition	87.2 % inhibition	–	–	–
